Earlier results as cited in patent US20010014678A1, “Nicotine addiction treatment” (CARY MEDICAL CORPORATION, priority 1997, published 2001).

**Q.** Which metabolic half-life (in vivo) does the source give for CN1CCCC1c1cccnc1 (centres unmarked) [nicotine] here?
**A.** roughly 2 hours

**Q.** What about the “nicotine in venous blood” value (provided by one cigarette) of the same compound?
**A.** 5 to 30 ng/mL
